Test results as given in patent US20230159891A1, “T CELL PROGENITOR PRODUCTION METHOD” (Kyoto University, priority 2020, published 2023).

Columns and labels:
[1] = system: CD34^+ cells; settings: NPL 5 (Boitano et al.); cited from earlier work
[2] = system: Hemogenic endothelial cells (HECs) derived from iPS cells; test: Importance of SR1 and IL-3 in production of T cell progenitor (Example 3); format: cell-based, human; settings: 12 days culture
Experimental: Hemogenic endothelial cells (HECs) derived from iPS cells prepared in the same manner as in Example 1 were sorted by BD FACSAria® Fusion and re-suspended in a StemSpan SFEM II medium, followed by seeding the cells into a culture vessel (6-well plate) coated with RN and DLL4-Fc (225,000/6 wells). […] Halfway through the culture, on day 4 after the start of culture, 500 μl of the medium described above was added. On day 7 after the start of culture, a half amount of the medium was replaced. On day 12 after the start of culture, cells were collected with pipetting, and the cell number was measured. The cells were stained with the antibodies shown in Table 2 and measured with BD FACSAria™ Fusion.

[3] = system: Hemogenic endothelial cells (HECs) induced from iPS cells; test: Differentiation culture of iPS-derived hemogenic endothelial cells into CD34+/CD7+ T cell progenitors (Example 1); format: cell-based, human
Experimental: The cell population containing hemogenic endothelial cells (HECs) for use was a floating cell population obtained by differentiating iPS cells (Ff-I01s04: derived from peripheral blood mononuclear cells of a healthy individual) provided from the Center for iPS Cell Research and Application, Kyoto University, according to known methods (e.g., the methods disclosed in Cell Reports 2 (2012) 1722-1735, or WO2017/221975). Specifically, Ff-I01s04 was seeded at 1×10^6 cells/well in an ultra-low-attachment 6-well plate (Day 0). The cells were cultured under hypoxic conditions (5% 02) for 4 days in EB medium (StemPro-34 supplemented with 10 μg/ml human insulin, 5.5 μg/ml human transferrin, 5 ng/ml sodium selenite, 2 mM L-glutamine, […] α-monothioglycerol, and 50 μg/ml ascorbic acid 2-phosphate) supplemented with 50 ng/ml BMP4, 50 ng/ml bFGF, 50 ng/ml VEGF, and 2 μM SB431542 (Day 4). Subsequently, culture was further performed in a medium supplemented with 50 ng/ml bFGF, 50 ng/ml VEGF, and 50 ng/ml SCF for 4 days (Day 8), thereby obtaining a cell population containing HECs. The floating cell population containing HECs were stained with the following antibody set. […] On day 11 after the start of culture, cells were collected with pipetting, and the cell number was measured. […]

Question: With `CC(C)n1cnc2c(NCCc3ccc(O)cc3)nc(-c3csc4ccccc34)nc21` [SR1, 4-(2-((2-(benzo[b]thiophen-3-yl)-9-isopropyl-9H-purin-6-yl)amino)ethyl)phenol] as the compound, how does the “expansion of CD34+ cells” value [1] read?
Answer: promoted expansion

Question: What about the “expression level of CD34” value ([2]; flow cytometry, control vs -SR1 condition, FIG. 4) of the same compound?
Answer: plays an important role in maintaining the expression level of CD34

Question: What about the “cell proliferation (cell number) when the factor is excluded from the additives” value ([2]; control: 1 nM SR1, 10 ng/ml IL-3 plus SCF, Flt3L, TPO, IL-7, IL-6, FIG. 3) of the same compound?
Answer: reduced

Question: And the cell growth ([3]; 10 days of culture, 1 nM SR1 with SCF, Flt3L, TPO, IL-7, IL-6, IL-3 in StemSpan SFEM II on RetroNectin/DLL4-Fc coated plate)?
Answer: about 150 fold

Question: And the “proportion of cells that were proT (CD34+/CD7+) cells” value ([3]; same culture as E1, flow cytometry after culture)?
Answer: about 25%
